What was measured:
Line-1 = assay: siRNA against Line-1 in mouse primary chondrocytes, RT-qPCR; format: cell-based; settings: for Line-1 expression: siRNA screening, versus scramble siRNA
Procedure: Cells were seeded onto desired size plates to reach 70-90% confluence and transfected with miR-365 mimic or miRNA mimic negative control or miR-365 inhibitor or inhibitor negative control (Dharmacon®, Lafayette, Colo., USA). Lipofectamine 3000 (Invitrogen®, Waltham, Mass., USA) was used as transfection reagents. Medium is changed 24 hrs after transfection. 48 hrs post transfection, cells were lysated in either QIAzol for RNA purification and real-time PCR analysis or ice-cold lysis buffer containing protease inhibitor and phosphatase inhibitor for western blot analysis. MiR-365 mimic, miRNA mimic negative control, miR-365 inhibitor and inhibitor negative control were typically used at a final concentration of 25 nM unless otherwise stated.
Both miRNA and mRNA were extracted using miRNeasy Mini Kit (Qiagen®, Germantown, Md., USA) and reversely transcribed using miScriptIIRT Kit (Qiagen®, Germantown, Md., USA) according to manufacturer's instruction. qPCR was performed using SYBR Green PCR master mix (Qiagen®, Germantown, Md., USA) on a Bio-Rad CFX96 real-time PCR detection system (Bio-Rad®, Hercules, Calif., USA). Amplification conditions are as follows: 95° C. for 10 min, 40 cycles of 95° C. for 10″, 55° C. for 30″, and 72° C. for 30″. 18S ribosomal or GAPDH RNA was used as an internal control gene to normalize the mRNAs level. The ubiquitously expressed snRNA U6 was used as an endogenous control for miRNAs level. Primers were synthesized by Integrated DNA Technologies (http://www.idtdna.com). The primers for miR-365 were purchased from Qiagen. Fold changes of mRNA and miRNAs were calculated by the 2^^(ΔΔCt) method and normalized to 18S/GAPDH or U6 snRNA, respectively.

HIV patients = assay: summary data of NRTI on OA in HIV patients; format: in vivo, human; settings: for expanded OA (ICD-9-CM 715, 716 or 719) / strict OA (ICD-9-CM 715): HIV patients; for strict OA (ICD-9-CM 715): older than 50, dosage dependent, both male and female
From the text: Medical provider diagnoses of ICD-9-CM 715 [osteoarthrosis and allied disorders] include the following definitions: 1) strict=ICD-9-CM 715; 2) expanded=ICD-9-CM 715, 716 [other and unspecified arthropathies], OR 719 [other and unspecified disorders of joint]); and 3) probable=strict OR expanded+respondent-reported prior diagnosis of OA or other arthritis excluding rheumatoid arthritis (RA).

[1] = mouse PC transfected with miR-365 mimic

Row | Molecule | Line-1 expression (Line-1) | expanded OA (ICD-9-CM 715, 716 or 719) (HIV patients) | strict OA (ICD-9-CM 715) (HIV patients) | also measured
1 | siLine-1E: siRNA against Line-1, AAGTTTCTGCAAGGCAAAAGA (SEQ ID NO: 97) (AAGTTTCTGCAAGGCAAAAGA; listed as DNA, chemistry not given here) | significantly suppressed | – | – | –
2 | siLine-1C: siRNA against Line-1, AAGCCACTATTACTCTGATAC (SEQ ID NO: 95) (AAGCCACTATTACTCTGATAC; listed as DNA, chemistry not given here) | significantly suppressed | – | – | –
3 | Cc1cn([C@H]2C[C@H](N=[N+]=[N-])[C@@H](CO)O2)c(=O)[nH]c1=O [ZDV, Zidovudine] | – | partially inhibiting | inhibiting | –
4 | Cc1cn([C@H]2C=C[C@@H](CO)O2)c(=O)[nH]c1=O [D4T, 2′,3′-didehydro-2′,3′-dideoxythymidine] | – | inhibiting | inhibiting | extent of inhibition of strict OA and expanded OA (HIV patients; among NRTIs): highest extent of inhibition
5 | siLine-1D: siRNA against Line-1, AAGGTCAAATCTAAGTGGATC (SEQ ID NO: 96) (AAGGTCAAATCTAAGTGGATC; listed as DNA, chemistry not given here) | significantly suppressed | – | – | miR-365-elicited gene expression changes (L1, Adamts5, Mmp3, Ihh, Col2a1, Acan) (Line-1; co-transfected with miR-365 (FIG. 1D-1I)): abolished; miR-365 led induction of Ihh (Line-1; [1]): successfully rescued; miR-365 led induction of Line-1 (Line-1; [1]): successfully rescued
6 | Nc1nc(NC2CC2)c2ncn([C@H]3C=C[C@@H](CO)C3)c2n1 [ABC, abacavir] | – | – | inhibiting | –
7 | O=c1nc[nH]c2c1ncn2[C@H]1CC[C@@H](CO)O1 [DDL, 2′,3′-dideoxyinosine] | – | inhibiting | inhibiting | toxicity (HIV patients; group of less than 40 years old): No toxicity
